# Laboratory results as given in patent US20220144812A1, “QUINOLINE DERIVATIVES AND THEIR USE FOR THE TREATMENT OF CANCER” (Epizyme, Inc., priority 2019, published 2022).
# Key:
# EP300 (P300(1048-1664)) = molecular target: T1, EP300 (P300(1048-1664)) (Homo sapiens, UniProt Q09472); test: Biochemical assay for EP300, SAMDI; conditions: EP300, SAMDI; read-out: EP300 Biochemistry IC50
# T1 construct: P300(1048-1664)
# T1 sequence (Q09472 1048-1664): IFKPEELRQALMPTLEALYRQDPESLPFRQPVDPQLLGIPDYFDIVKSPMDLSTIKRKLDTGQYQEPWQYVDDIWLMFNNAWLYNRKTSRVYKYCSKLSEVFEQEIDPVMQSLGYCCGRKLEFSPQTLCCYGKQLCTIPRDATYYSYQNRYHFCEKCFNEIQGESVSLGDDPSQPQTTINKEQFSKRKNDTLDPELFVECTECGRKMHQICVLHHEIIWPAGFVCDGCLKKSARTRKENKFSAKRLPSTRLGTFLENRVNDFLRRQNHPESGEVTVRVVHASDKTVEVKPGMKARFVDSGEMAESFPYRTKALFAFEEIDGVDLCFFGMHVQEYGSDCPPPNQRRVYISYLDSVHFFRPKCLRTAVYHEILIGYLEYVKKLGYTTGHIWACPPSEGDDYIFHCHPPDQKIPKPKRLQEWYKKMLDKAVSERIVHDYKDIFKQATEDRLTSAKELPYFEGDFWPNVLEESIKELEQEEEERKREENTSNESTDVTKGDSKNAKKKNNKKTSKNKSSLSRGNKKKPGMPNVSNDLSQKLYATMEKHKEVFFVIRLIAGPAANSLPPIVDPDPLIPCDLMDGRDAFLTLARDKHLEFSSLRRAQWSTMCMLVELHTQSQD
# Source text: The following example describes materials and methods relating to a biochemical assay for EP300. IC50 values (micromolar (μM)) are summarized in Table 1, Table 2, and Table 3 under the column labeled: “EP300 Biochemistry IC50 (micromolar).”
# CREBBP (1084-1701) = molecular target: T2, CREBBP (1084-1701) (Homo sapiens, UniProt Q92793); test: Biochemical assay for CREBBP (1084-1701), SAMDI; conditions: SAMDI, read-out: CREBBP Biochemistry IC50
# T2 construct: measured in the following biochemical assay using CREBBP (1084-1701); purchased
# T2 sequence (Q92793 1084-1701): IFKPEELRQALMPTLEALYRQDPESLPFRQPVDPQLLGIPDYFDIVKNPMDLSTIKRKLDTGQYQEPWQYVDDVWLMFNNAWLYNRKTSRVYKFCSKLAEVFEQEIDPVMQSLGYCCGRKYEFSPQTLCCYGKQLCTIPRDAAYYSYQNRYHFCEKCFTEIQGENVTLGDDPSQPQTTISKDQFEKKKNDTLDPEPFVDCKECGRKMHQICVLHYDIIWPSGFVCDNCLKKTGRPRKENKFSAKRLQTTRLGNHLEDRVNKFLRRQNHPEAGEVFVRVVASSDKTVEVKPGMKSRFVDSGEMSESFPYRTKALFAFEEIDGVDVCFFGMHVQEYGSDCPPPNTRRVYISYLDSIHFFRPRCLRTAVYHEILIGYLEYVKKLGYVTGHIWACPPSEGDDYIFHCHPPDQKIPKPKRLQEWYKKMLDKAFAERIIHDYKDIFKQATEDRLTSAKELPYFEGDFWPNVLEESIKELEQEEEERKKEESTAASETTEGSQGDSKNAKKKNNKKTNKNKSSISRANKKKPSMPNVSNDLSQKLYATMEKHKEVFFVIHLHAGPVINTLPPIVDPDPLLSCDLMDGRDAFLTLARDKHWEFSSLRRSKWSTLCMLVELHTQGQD
# Procedure, shortened: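 CREBBP (1084-1701) preincubated with compound 30 min at RT, then substrate mix (biotin-H3 11-25 K14R/K23R peptide, acetyl-CoA) added for 30 min at RT. Reaction stopped with formic acid, neutralised with sodium bicarbonate. Peptide acetylation read by SAMDI mass spectrometry to derive IC50.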
# [1] = tested on: H3K18Ac in HB-CLS-2 cells; test: H3K18AC in-cell western (ICW) assay; assay type: cell-based; conditions: H3K18Ac in-cell western; read-out: CREBBP ICW IC50
# Procedure, shortened: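 HB-CLS-2 cells seeded 16–24 hours before 2 hr compound treatment at 37° C, 5% CO2, then methanol-fixed. H3K18Ac detected with rabbit monoclonal primary (overnight, 4° C) and 800CW anti-rabbit secondary; DRAQ5 stained DNA. Plates imaged at 700 and 800 nm for integrated intensity; IC50 in μM.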
# 647V cells = test: High throughput proliferation (HTP) assay; assay type: cell-based; conditions: Homo sapiens, 647-V, high throughput proliferation; read-out: CREBBP HTP IC50
# Procedure, shortened: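 Exponentially growing 647V cells in DMEM with 15% FBS were treated in triplicate with increasing compound concentrations at 37° C, 5% CO2. Viable cell number was read by CellTiter-Glo luminescence on day 7; IC50 in micromolar.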
Compound,IC50 (EP300 (P300(1048-1664))) [nM],IC50 (CREBBP (1084-1701)) [nM],IC50 [1] [nM],IC50 (647V cells) [nM]
CCn1ncc(CN(C)C(=O)c2nc(-c3ccc(OCCCNC)c(C(C)C)c3)nc3ccc(Cl)cc23)c1C [Compound 440],937,88.2,2050,991
CCn1ncc(CN(C)C(=O)c2nc(-c3ccc(OCCNC)c(Cl)c3)nc3ccc(C(F)F)cc23)c1C [Compound 441],36.7,50.3,269,216
CCn1ncc(CN(C)C(=O)c2cc(-c3ccc(OCCNC)c(C)n3)nc3ccc(Cl)cc23)c1C [Compound 442],414,76.9,195,350
CCn1ncc(CN(C)C(=O)c2nc(-c3cnnc(C(=O)NC)c3)nc3ccc(Cl)cc23)c1C [Compound 443],≥ 50000,≥ 50000,20000,20000
CCn1ncc(CN(C)C(=O)c2nc(-c3cc(C)cc(NC4CNC4)c3)nc3ccc(Cl)cc23)c1C [Compound 444],4.1,12.3,160,58.2
CCn1ncc(CN(C)C(=O)c2nc(-c3ccc(OCCCNC)c(C)c3C)nc3ccc(Cl)cc23)c1C [Compound 446],13.2,24.8,112,34.2
CCn1ncc(CN(C)C(=O)c2cc(-c3cc(C(=O)NC)n(C)n3)nc3ccc(Cl)cc23)c1C [Compound 447],2,12.1,51.4,68.8
CCn1ncc(CN(C)C(=O)c2nc(-c3nn(C)c(C(=O)NC)c3Cl)nc3ccc(Cl)cc23)c1C [Compound 448],35500,48300,14300,12600
CCn1ncc(CN(C)C(=O)c2cc(-c3ccc(NCCNC)c(C)n3)nc3ccc(C4CC4)cc23)c1C [Compound 449],51.1,49.8,221,135
CCn1ncc(CN(C)C(=O)c2nc(-c3cc(-c4ncon4)n(C)n3)nc3ccc(Cl)cc23)c1C [Compound 450],24600,≥ 50000,20000,20000

# Further lines, with some results ahead:
IC50 (EP300 (P300(1048-1664))) [nM],IC50 (CREBBP (1084-1701)) [nM],IC50 [1] [nM],Compound,IC50 (647V cells) [nM]
3880,3010,13000,CCn1ncc(CN(C)C(=O)c2nc(-c3cc(C)c(OCCCNC)c(NC)c3)nc3ccc(Cl)cc23)c1C [Compound 451],2280
2360,3910,4830,CCn1ncc(CN(C)C(=O)c2nc(-c3ccc(OCCNC)c(Cl)c3)nc3ccc(S(C)(=O)=O)cc23)c1C [Compound 453],1200
5.5,22.7,141,CCn1ncc(CN(C)C(=O)c2cc(-c3ccc(NC4COC4)c(C)n3)nc3ccc(Cl)cc23)c1C [Compound 454],133
114,353,1200,CCn1ncc(CN(C)C(=O)c2nc(-c3cc4c(NC(C)=O)n[nH]c4cc3C)nc3ccc(Cl)cc23)c1C [Compound 455],547
880,104,1410,CCN(Cc1cnn(CC)c1C)C(=O)c1cc(-c2ccc(NCCNC)c(C)n2)nc2ccc(Cl)cc12 [Compound 456],626
5.7,15.5,188,CCn1ncc(CN(C)C(=O)c2cc(-c3ccc(NCC(O)CNC)c(C)n3)nc3ccc(Cl)cc23)c1C (stereo not drawn) [Compound 457],41.7
1460,1430,1050,CCn1ncc(CN(C)C(=O)c2nc(-c3cc(C)c4c(c3)NCCN4)nc3ccc(Cl)cc23)c1C [Compound 458],523
4.5,13.9,60.4,CCn1ncc(CN(C)C(=O)c2nc(-c3cc(C)c4c(N)[nH]nc4c3)nc3ccc(Cl)cc23)c1C [Compound 459],54.4
